Test system: Luc-CM disseminated tumors
Test: Luc-CM disseminated xenograft tumor model
Type: in vivo, NSG mice
Protocol: Luc-PANC-1 (5×106) and Luc-CM (0.5×106) cells were resuspended in 200 ul of PBS and injected subcutaneously (SQ) or intraperitonially (IP) to 6-8-week-old NSG mice respectively. Tumor bearing mice were imaged using Xenogen IVIS® Lumina Bioluminescence Imaging System (Perkin Elmer) every week after cell injection. At 4 weeks, animals were randomized based on slope of luciferase signal and treatment was initiated. […] For all animals body weight was recorded weekly and Luc-PANC-1 tumor volume was measured weekly with a caliper. For scheduled sacrifice experiments, animals were euthanized after 4 weeks of treatment. […] Harvested tumors were excised and weighted, and fixed in alcoholic formalin (67.5% Ethanol, 10% Formaldehyde 37%, 22.5% water) for pathology analysis. Tumor volume was calculated as [volume=0.52 (length×width2)].
From this stock, the exact volume needed for daily in vivo delivery was then formulated into 95% corn oil (Mazola) at 2 different concentrations: 1.25 mg/mi (formulation 1) and 3.125 mg/ml (formulation 2). To determine the volume of solution administered to the mice, 200 μl (maximum volume to be delivered in mice via IP or oral gavage) was divided by 25 g of mouse body weight. Therefore, 8 μl of formulation 1 or 2 multiplied by the weight of the mice were used to reach a dose of 10 or 25 mg/kg of body weight, respectively.
Prior to bioluminescence imaging the region where tumors were located was shaved. Mice were then anesthetized with 2.5% isoflurane in 02 then administered the D-luciferin substrate (150 mg/kg in PBS) by IP injection. Following the injection of the D-luciferin substrate mice were imaged using the Xenogen IVIS® Lumina Bioluminescence Imaging System (Perkin Elmer). The peak of luciferase photon flux was recorded 6 minutes after injection of the D-luciferin substrate. The total photon flux was analyzed and restricted to tumor ROI (region of interest) using Living Image v2.60.1 software (Imaging Systems).

SMILES: CCc1nc(N)nc(N)c1-c1ccc(N(C)Cc2ccccc2)c([N+](=O)[O-])c1 [Compound 19-S]
- body weight and behavior (25 mg/kg IP, 3 cycles): did not show significant deviations in body weight or display adverse behavior
- tumor progression (abdominal bioluminescence photon flux) (25 mg/kg IP, 3 cycles, p=0.0032 vs vehicle): efficiently inhibited tumor progression
- body weight (25 mg/kg oral gavage): no significant deviations in body weight

From patent US20260258000A1, “THYMIDYLATE SYNTHASE INHIBITORS AND USES THEREOF” (University of Florida Research Foundation, Incorporated, priority 2021, published 2026)
